Experimental data as given in patent US20240043427A1 (Gilead Sciences, Inc., priority 2020, published 2024).

Assays:
[1] = target: T1, CD73 (Homo sapiens (Human), UniProt P21589); type: biochemical; settings: 1 mM NaH2PO4 in enzyme buffer, CD73 0.3 nM, AMP 15 uM
[2] = target: T1, CD73; assay: MDA-MB-231 Cell Based CD73 Activity Assay (DMEM); settings: MDA-MB-231-GFP cells, DMEM medium with 10% human plasma, 200 uM AMP

T1 sequence (P21589 27-574): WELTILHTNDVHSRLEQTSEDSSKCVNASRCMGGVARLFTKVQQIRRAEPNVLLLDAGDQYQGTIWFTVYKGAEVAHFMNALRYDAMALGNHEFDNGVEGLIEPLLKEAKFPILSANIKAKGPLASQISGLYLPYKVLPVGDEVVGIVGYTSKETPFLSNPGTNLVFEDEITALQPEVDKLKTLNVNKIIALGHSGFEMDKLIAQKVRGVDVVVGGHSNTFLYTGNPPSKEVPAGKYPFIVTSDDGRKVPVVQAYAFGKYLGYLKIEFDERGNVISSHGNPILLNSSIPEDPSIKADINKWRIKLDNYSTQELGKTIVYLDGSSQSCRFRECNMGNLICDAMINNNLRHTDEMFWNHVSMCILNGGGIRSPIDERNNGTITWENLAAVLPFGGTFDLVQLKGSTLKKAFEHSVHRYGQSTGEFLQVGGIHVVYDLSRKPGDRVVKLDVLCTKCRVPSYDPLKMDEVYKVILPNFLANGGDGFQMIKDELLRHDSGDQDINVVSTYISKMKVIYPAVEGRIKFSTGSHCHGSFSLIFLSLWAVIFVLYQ

| Structure (SMILES) | IC50 [1] [nM] | EC50 [2] [nM] |
| --- | --- | --- |
| O=c1[nH]cc(-c2cc([C@H]3C[C@@H]3c3ccc4nc(C(F)(F)F)sc4c3)c3nccn3n2)c(=O)[nH]1 [Example 562, 5-(8-((1S,2S)-2-(2-(trifluoromethyl)benzo[d]thiazol-6-yl)cyclopropyl)imidazo[1,2-b]pyridazin-6-yl)pyrimidine-2,4(1H,3H)-dione] | 0.97 | 2.64 |
| N#Cc1cc(F)c([C@H]2C[C@@H]2c2cc(-c3c[nH]c(=O)[nH]c3=O)nn3ccnc23)cc1F [Example 565, 4-((1S,2S)-2-(6-(2,4-dioxo-1,2,3,4-tetrahydropyrimidin-5-yl)imidazo[1,2-b]pyridazin-8-yl)cyclopropyl)-2,5-difluorobenzonitrile] | 1.98 | 9.24 |
| N#Cc1cc(F)c([C@H]2C[C@@H]2c2cc(-c3c[nH]c(=O)[nH]c3=O)nn3c(F)cnc23)cc1F [Example 573, 4-((1S,2S)-2-(6-(2,4-dioxo-1,2,3,4-tetrahydropyrimidin-5-yl)-3-fluoroimidazo[1,2-b]pyridazin-8-yl)cyclopropyl)-2,5-difluorobenzonitrile] | 1.21 | 7.46 |
| O=c1[nH]cc(-c2cc(N3CC4CC(C3)C4(F)F)c3nccn3n2)c(=O)[nH]1 [Example 575, 5-(8-(6,6-difluoro-3-azabicyclo[3.1.1]heptan-3-yl)imidazo[1,2-b]pyridazin-6-yl)pyrimidine-2,4(1H,3H)-dione] | 57.1 | 142 |
| O=c1[nH]cc(-c2cc([C@H]3C[C@@H]3c3ccc(Cl)cn3)c3ncc(F)n3n2)c(=O)[nH]1 [Example 584, 5-(8-((1S,2S)-2-(5-chloropyridin-2-yl)cyclopropyl)-3-fluoroimidazo[1,2-b]pyridazin-6-yl)pyrimidine-2,4(1H,3H)-dione] | 0.91 | 2.98 |
| O=c1[nH]cc(-c2cc([C@H]3C[C@@H]3c3ncc(Cl)cc3F)c3ncc(F)n3n2)c(=O)[nH]1 [Example 588, 5-(8-((1S,2S)-2-(5-chloro-3-fluoropyridin-2-yl)cyclopropyl)-3-fluoroimidazo[1,2-b]pyridazin-6-yl)pyrimidine-2,4(1H,3H)-dione] | 0.69 | 2.33 |
| O=c1[nH]cc(-c2cc([C@H]3C[C@@H]3c3ccc4cnn(CC(F)(F)F)c4c3F)c3nccn3n2)c(=O)[nH]1 [Example 594, 5-(8-((1S,2S)-2-(7-fluoro-1-(2,2,2-trifluoroethyl)-1H-indazol-6-yl)cyclopropyl)imidazo[1,2-b]pyridazin-6-yl)pyrimidine-2,4(1H,3H)-dione] | 0.58 | 0.12 |
| O=c1[nH]cc(-c2cc([C@H]3C[C@@H]3c3cc4c(cnn4CC(F)(F)F)cc3F)c3nccn3n2)c(=O)[nH]1 [Example 595, 5-(8-((1S,2S)-2-(5-fluoro-1-(2,2,2-trifluoroethyl)-1H-indazol-6-yl)cyclopropyl)imidazo[1,2-b]pyridazin-6-yl)pyrimidine-2,4(1H,3H)-dione] | 1.27 | 0.52 |
| O=c1[nH]cc(-c2cc([C@H]3C[C@@H]3c3cc(F)c4cnn(CC(F)(F)F)c4c3)c3nccn3n2)c(=O)[nH]1 [Example 596, 5-(8-((1S,2S)-2-(4-fluoro-1-(2,2,2-trifluoroethyl)-1H-indazol-6-yl)cyclopropyl)imidazo[1,2-b]pyridazin-6-yl)pyrimidine-2,4(1H,3H)-dione] | 0.7 | 0.14 |
| O=c1[nH]cc(-c2cc([C@H]3C[C@@H]3c3ccc4c(C(F)(F)F)nn(CC(F)(F)F)c4c3)c3nccn3n2)c(=O)[nH]1 [Example 607, 5-(8-((1S,2S)-2-(1-(2,2,2-trifluoroethyl)-3-(trifluoromethyl)-1H-indazol-6-yl)cyclopropyl)imidazo[1,2-b]pyridazin-6-yl)pyrimidine-2,4(1H,3H)-dione] | 0.9 | 0.23 |
| O=c1[nH]cc(-c2cc([C@H]3C[C@@H]3c3ccc4cnn(CC(F)(F)F)c4n3)c3ncc(F)n3n2)c(=O)[nH]1 [Example 610, 5-(3-fluoro-8-((1S,2S)-2-(1-(2,2,2-trifluoroethyl)-1H-pyrazolo[3,4-b]pyridin-6-yl)cyclopropyl)imidazo[1,2-b]pyridazin-6-yl)pyrimidine-2,4(1H,3H)-dione] | 0.37 | 0.23 |
| O=c1[nH]cc(-c2cc([C@@H]3C[C@H]3c3cc4c(cn3)cnn4CC(F)(F)F)c3ncc(F)n3n2)c(=O)[nH]1 [Example 612, 5-(3-fluoro-8-((1R,2R)-2-(1-(2,2,2-trifluoroethyl)-1H-pyrazolo[4,3-c]pyridin-6-yl)cyclopropyl)imidazo[1,2-b]pyridazin-6-yl)pyrimidine-2,4(1H,3H)-dione] | 6.06 | 1.02 |
| CC(n1ncc2ccc([C@H]3C[C@@H]3c3cc(-c4c[nH]c(=O)[nH]c4=O)nn4ccnc34)cc21)C(F)(F)F (stereo partly drawn) [Example 617, 5-(8-((1S,2S)-2-(1-(1,1,1-trifluoropropan-2-yl)-1H-indazol-6-yl)cyclopropyl)imidazo[1,2-b]pyridazin-6-yl)pyrimidine-2,4(1H,3H)-dione] | 0.78 | 0.22 |
| O=c1[nH]cc(-c2cc([C@H]3C[C@@H]3c3cc(F)c4cnn(CC(F)(F)F)c4c3)c3ncc(F)n3n2)c(=O)[nH]1 [Example 618, 5-(3-fluoro-8-((1S,2S)-2-(4-fluoro-1-(2,2,2-trifluoroethyl)-1H-indazol-6-yl)cyclopropyl)imidazo[1,2-b]pyridazin-6-yl)pyrimidine-2,4(1H,3H)-dione] | 0.34 | 0.13 |
| O=c1[nH]cc(-c2cc([C@H]3C[C@@H]3c3ccc4nc(C(F)(F)F)n(CC(F)(F)F)c4c3)c3nccn3n2)c(=O)[nH]1 [Example 620, 5-(8-((1S,2S)-2-(1-(2,2,2-trifluoroethyl)-2-(trifluoromethyl)-1H-benzo[d]imidazol-6-yl)cyclopropyl)imidazo[1,2-b]pyridazin-6-yl)pyrimidine-2,4(1H,3H)-dione] | 1.22 | 0.07 |

Now from value to molecule:

| IC50 [1] [nM] | EC50 [2] [nM] | Structure (SMILES) |
| --- | --- | --- |
| 0.66 | 10.6 | N#Cc1ccc([C@H]2C[C@@H]2c2cc(-c3c[nH]c(=O)[nH]c3=O)nn3ccnc23)cc1C1CC1 [Example 563, 2-cyclopropyl-4-((1S,2S)-2-(6-(2,4-dioxo-1,2,3,4-tetrahydropyrimidin-5-yl)imidazo[1,2-b]pyridazin-8-yl)cyclopropyl)benzonitrile] |
| 0.78 | 4.46 | N#Cc1ccc([C@H]2C[C@@H]2c2cc(-c3c[nH]c(=O)[nH]c3=O)nn3ccnc23)cc1Cl [Example 566, 2-chloro-4-((1S,2S)-2-(6-(2,4-dioxo-1,2,3,4-tetrahydropyrimidin-5-yl)imidazo[1,2-b]pyridazin-8-yl)cyclopropyl)benzonitrile] |
| 1.73 | 7.93 | Cc1cc([C@H]2C[C@@H]2c2cc(-c3c[nH]c(=O)[nH]c3=O)nn3ccnc23)cc(F)c1C#N [Example 567, 4-((1S,2S)-2-(6-(2,4-dioxo-1,2,3,4-tetrahydropyrimidin-5-yl)imidazo[1,2-b]pyridazin-8-yl)cyclopropyl)-2-fluoro-6-methylbenzonitrile] |
| 6.66 | 11.2 | O=c1[nH]cc(-c2cc(N3CCC4(CCC4)C3)c3nccn3n2)c(=O)[nH]1 [Example 569, 5-(8-(6-azaspiro[3.4]octan-6-yl)imidazo[1,2-b]pyridazin-6-yl)pyrimidine-2,4(1H,3H)-dione] |
| 30.4 | 62.3 | O=c1[nH]cc(-c2cc(N3CCC4(C3)CC(F)(F)C4)c3nccn3n2)c(=O)[nH]1 [Example 571, 5-(8-(2,2-difluoro-6-azaspiro[3.4]octan-6-yl)imidazo[1,2-b]pyridazin-6-yl)pyrimidine-2,4(1H,3H)-dione] |
| 25.3 | 93.9 | COCC1(C)CCN(c2cc(-c3c[nH]c(=O)[nH]c3=O)nn3ccnc23)C1 (centres unmarked) [Example 572, 5-(8-(3-(methoxymethyl)-3-methylpyrrolidin-1-yl)imidazo[1,2-b]pyridazin-6-yl)pyrimidine-2,4(1H,3H)-dione] |
| 19.6 | 81.2 | O=c1[nH]cc(-c2cc(N3CCC(C4CC4)C3)c3nccn3n2)c(=O)[nH]1 (centres unmarked) [Example 577, 5-(8-(3-cyclopropylpyrrolidin-1-yl)imidazo[1,2-b]pyridazin-6-yl)pyrimidine-2,4(1H,3H)-dione] |
| 161 | 1870 | O=c1[nH]cc(-c2cc(N3CCC(C4CC(F)(F)C4)C3)c3nccn3n2)c(=O)[nH]1 (centres unmarked) [Example 578, 5-(8-(3-(3,3-difluorocyclobutyl)pyrrolidin-1-yl)imidazo[1,2-b]pyridazin-6-yl)pyrimidine-2,4(1H,3H)-dione] |
| 0.69 | 1.9 | O=c1[nH]cc(-c2cc([C@H]3C[C@@H]3c3ccc(Cl)cn3)c3nccn3n2)c(=O)[nH]1 [Example 585, 5-(8-((1S,2S)-2-(5-chloropyridin-2-yl)cyclopropyl)imidazo[1,2-b]pyridazin-6-yl)pyrimidine-2,4(1H,3H)-dione] |
| 0.85 | 2.94 | O=c1[nH]cc(-c2cc([C@H]3C[C@@H]3c3ncc(Cl)cc3F)c3nccn3n2)c(=O)[nH]1 [Example 586, 5-(8-((1S,2S)-2-(5-chloro-3-fluoropyridin-2-yl)cyclopropyl)imidazo[1,2-b]pyridazin-6-yl)pyrimidine-2,4(1H,3H)-dione] |
| 23.3 | 66.1 | O=c1[nH]cc(-c2cc(N3CCC4(CCC(F)(F)CC4)C3)c3nccn3n2)c(=O)[nH]1 [Example 587, 5-(8-(8,8-difluoro-2-azaspiro[4.5]decan-2-yl)imidazo[1,2-b]pyridazin-6-yl)pyrimidine-2,4(1H,3H)-dione] |
| 96.2 | 774 | O=c1[nH]cc(-c2cc(N3CCC(Cn4ccnn4)C3)c3nccn3n2)c(=O)[nH]1 (centres unmarked) [Example 592, 5-(8-(3-((1H-1,2,3-triazol-1-yl)methyl)pyrrolidin-1-yl)imidazo[1,2-b]pyridazin-6-yl)pyrimidine-2,4(1H,3H)-dione] |
| 7.24 | 33 | C#CCC1CCN(c2cc(-c3c[nH]c(=O)[nH]c3=O)nn3ccnc23)C1 (centres unmarked) [Example 593, 5-(8-(3-(prop-2-yn-1-yl)pyrrolidin-1-yl)imidazo[1,2-b]pyridazin-6-yl)pyrimidine-2,4(1H,3H)-dione] |
